These results are taken from patent US20130158063A1, “Compounds, Compositions and Methods Related to PPAR Antagonists” (GEORGETOWN UNIVERSITY, priority 2010, published 2013).

Usually EC50 stands for the concentration needed to bring the measured effect to its halfway point. A word on the inhibition: it is the drop in the measured response relative to a control, in per cent.

Data set [1] concerns Mouse mammary tumor cell lines MC, 437T, 105T and 34T; Comma1D mammary epithelial cell line. The data set can be described thus: Cytotoxicity against mammary cell lines. It counts as cell-based. The following applies: 0-25 μM BTB07995, with and without GW501516. The source says: Mouse mammary tumor cell lines MC, 437T, 105T and 34T were generated from primary DMBA-induced tumors in wild-type FVB, MMTV-Pax8PPARγ transgenic, Sca-1 null and Sca-1+/EGFP mice. Comma1D is an immortalized mammary epithelial cell line.

The target of data set [2] is T1, PPARδ (Homo sapiens, UniProt Q03181).
T1 construct: purchased Cayman Chemicals
T1 sequence (Q03181 1-441): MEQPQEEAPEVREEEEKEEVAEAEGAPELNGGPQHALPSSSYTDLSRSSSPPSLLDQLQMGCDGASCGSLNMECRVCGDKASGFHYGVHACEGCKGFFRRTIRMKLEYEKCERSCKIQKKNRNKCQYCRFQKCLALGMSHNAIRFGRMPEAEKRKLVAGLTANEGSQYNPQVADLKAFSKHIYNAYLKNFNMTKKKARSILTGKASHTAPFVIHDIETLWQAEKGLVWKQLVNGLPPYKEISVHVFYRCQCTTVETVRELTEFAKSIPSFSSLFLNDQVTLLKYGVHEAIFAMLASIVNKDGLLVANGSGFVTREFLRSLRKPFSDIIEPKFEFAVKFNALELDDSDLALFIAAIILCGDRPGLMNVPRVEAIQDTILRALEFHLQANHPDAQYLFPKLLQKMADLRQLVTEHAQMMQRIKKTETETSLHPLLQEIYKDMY
The conditions noted are these: cited from earlier work.

For a further data set, the system named is PPARα, PPARγ, PPARδ. The data set can be described thus: PPAR reporter assays, isotype profile over the three PPARs. The conditions noted are these: for PPAR isotype selectivity in reporter assays: inhibition of activation by 1 μM agonist; for PPAR inhibitor type (Table 1): from reporter data.
Data set [3] concerns the target T2, PPARα (Homo sapiens, UniProt Q07869).
T2 construct: purchased Cayman Chemicals
T2 sequence (Q07869 239-466 limits assumed): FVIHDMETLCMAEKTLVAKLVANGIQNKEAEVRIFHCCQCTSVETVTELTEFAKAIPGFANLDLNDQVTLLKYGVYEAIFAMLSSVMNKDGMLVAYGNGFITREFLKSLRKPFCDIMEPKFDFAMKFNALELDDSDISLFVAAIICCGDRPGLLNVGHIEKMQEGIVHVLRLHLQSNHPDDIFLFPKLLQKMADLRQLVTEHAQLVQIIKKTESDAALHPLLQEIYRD
Put plainly: Fluorescent Polarization (FP) binding assay with corepressor peptides, PPARα. The following applies: Nb = no binding. The procedure: (§1) For PPARγ screening, a fluorescent ligand supplied by Cayman Chemicals was also used. All compounds were dissolved in DMSO as 10 mM stock solutions and the final DMSO content in the assay was <1%. A TECAN Ultra 485 multi-functional microplate reader and GraphPad prism 4 software were used for measurements and analysis, respectively.
(§2) PPAR antagonists are expected to enhance the affinities of the corepressor peptides, and therefore, FP should increase as the compound concentration increases. Agonists would be expected to weaken the affinity of the same co-repressor peptide. Although this effect occurs for PPARγ, the dissociation of corepressor peptides varies for PPARα and PPARδ due to altered presentations of the overlapping coactivator/corepressor binding surfaces (Stanley T. B. et al. Biochemistry 42:9278-87, 2003). Compounds were screened initially against PPARγ and PPARδ at 1 and 100 μM. If binding was observed, titration experiments from 10 nM to 100 μM were carried out in triplicate with all three PPARs. […] For screening, either enhancement or weakening of FP was considered active.
(§3) Virtual screening for PPARγ was conducted against 56,000 compounds from the Maybridge library that targeted the ligand binding domain (LBD) of PPARγ, and 10 conformations of each compound were docked to the LBD using Autdock4 software (Scripps Institute). Sixty of the top ranked compounds were ordered from Maybridge, and 58 were available for evaluation. Fluorescent Polarization (FP) assays were established with the tagged co-repressor peptides NCoR1 and SMRT, the recombinant PPARα and PPARγ ligand-binding domains and full-length PPARδ. […] Sd-107 and its analogs are disclosed herein. The chemical structure is shown below.

In data set [4] the target is T3, PPARγ (Homo sapiens, UniProt P37231).
T3 construct: purchased Cayman Chemicals
T3 sequence (P37231 238-503 limits assumed): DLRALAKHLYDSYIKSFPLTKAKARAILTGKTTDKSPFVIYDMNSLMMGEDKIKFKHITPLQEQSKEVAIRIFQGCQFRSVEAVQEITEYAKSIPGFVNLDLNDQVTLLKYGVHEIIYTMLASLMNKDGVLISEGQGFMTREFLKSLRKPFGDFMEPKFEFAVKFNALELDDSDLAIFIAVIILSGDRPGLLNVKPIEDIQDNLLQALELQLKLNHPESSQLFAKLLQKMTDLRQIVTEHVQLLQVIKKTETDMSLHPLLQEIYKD
Put plainly: Fluorescent Polarization (FP) binding assay with corepressor peptides, PPARγ. The conditions noted are these: for EC50: FP assay, Nb = no binding, read-out: Binding assay EC50, γ. How it is done:
as §1, §2, §3

In data set [5] the target is T1, PPARδ. Put plainly: Fluorescent Polarization (FP) binding assay with corepressor peptides, PPARδ. The conditions noted are these: Nb = no binding. The procedure: as §1, §2, §3
The test system of data set [6] is PPARα. The data set can be described thus: PPAR reporter assay in 293T cells, PPARα (agonist WY14643). It counts as cell-based. The conditions noted are these: 1 μM agonist WY14643.
The target of data set [7] is T4, PPARγ (Mus musculus, UniProt P37238).
T4 construct: expressed in transfected cells; host or cells: 293T cells
T4 sequence (P37238 1-505): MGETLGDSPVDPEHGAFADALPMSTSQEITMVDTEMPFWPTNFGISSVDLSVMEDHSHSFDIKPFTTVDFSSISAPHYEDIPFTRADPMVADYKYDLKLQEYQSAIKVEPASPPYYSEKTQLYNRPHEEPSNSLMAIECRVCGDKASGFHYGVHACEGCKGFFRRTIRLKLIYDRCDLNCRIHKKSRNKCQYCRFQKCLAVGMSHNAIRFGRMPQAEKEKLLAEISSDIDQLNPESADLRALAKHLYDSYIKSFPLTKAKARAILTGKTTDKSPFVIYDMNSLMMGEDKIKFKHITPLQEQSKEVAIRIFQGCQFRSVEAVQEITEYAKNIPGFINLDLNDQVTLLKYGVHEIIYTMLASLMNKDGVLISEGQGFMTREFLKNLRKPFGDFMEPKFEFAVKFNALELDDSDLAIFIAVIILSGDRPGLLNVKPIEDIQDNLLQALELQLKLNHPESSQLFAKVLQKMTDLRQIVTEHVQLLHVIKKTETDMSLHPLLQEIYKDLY
Put plainly: PPAR reporter assay in 293T cells, PPARγ (agonist GW7845). The data set is classed as cell-based. The following applies: for inhibition at 1 µM / inhibition at 10 µM / inhibition at 25 µM: HEK-293T, 1 μM agonist GW7845, 293T cells, read-out: Reporter assay (% inhibition), γ; for inhibition at 1 µM: 1 μM compound; for inhibition at 10 µM: 10 μM compound; for inhibition at 25 µM: 25 μM compound. On the technique in general: Reporter assays use an easily measured gene product as a stand-in for the process of interest.

Data set [8] relates to PPARδ. The data set can be described thus: PPAR reporter assay in 293T cells, PPARδ (agonist GW501516). The following applies: 1 μM agonist GW501516. The data set is classed as cell-based.

“Also recorded” adds a separate entry of the source.

As to `O=C(NCCS(=O)(=O)c1ccc(C(F)(F)F)cn1)c1ccc(Cl)cc1` [BTB07995, reference compound], the “Cytotoxicity to mouse mammary cell lines” value in data set [1] is on record as “not cytotoxic”. For the same compound, the “PPARδ ligand potency and selectivity (literature)” value at PPARδ [2] is “potent and selective ligand for PPARδ”. Also, the “Agonist activity in Gal4-mPPAR reporter assays” value with PPARα, PPARγ, PPARδ (293T cells, 24 hr, absence of specific ligand) was “not an agonist for PPARα, PPARδ and PPARγ”. Also, the “PPAR isotype selectivity in reporter assays” value in the data set with PPARα, PPARγ, PPARδ is given as “PPARδ selectivity at lower concentrations; also recorded: selective antagonist of PPARδ”.

Take `CC(C)(C)c1ccc(S(=O)(=O)N(NC(=O)c2ccc(Cl)nc2)C(=O)c2ccc(Cl)nc2)cc1` [YL-1-83]: the EC50 at PPARα [3] (read-out: Binding assay EC50, α) was 1300 nM; on PPARγ [4], 110 nM. In addition, the “Competition in FPA of PPARγ with fluorescent labeled NCoR peptide probe” value at PPARγ [4] (FIG. 17, YL-1-80 analogs) is given as “best competition”. The “Binding assay EC50, δ” value on PPARδ [5] is “δ nb”. For the same compound, the “Reporter assay (% inhibition), α” value with PPARα [6] (1 μM compound), in the data set with PPARα [6] (10 μM compound) and in the data set with PPARα [6] (25 μM compound) was 0% each time. In addition, at PPARγ [7], the inhibition at 1 µM was 0%. In addition, the inhibition at 10 µM on PPARγ [7] was 0%. Also, the inhibition at 25 µM at PPARγ [7] came to 37%. Further, the “PPARγ antagonism” value at PPARγ [7] (binding and reporter screening) is “weak PPARγ antagonist”. The “Reporter assay (% inhibition), δ” value with PPARδ [8] (1 μM compound), in the data set with PPARδ [8] (10 μM compound) and in the data set on PPARδ [8] (25 μM compound) was 0% throughout. Besides, the “PPAR inhibitor type (Table 1)” value with PPARα, PPARγ, PPARδ is listed as “PPARγ inhibitor”. The “PPAR isotype selectivity in reporter assays” value with PPARα, PPARγ, PPARδ is “more selective for PPARγ”.

`CC(=O)Oc1ccc(C(=O)NN(C(=O)c2ccc(OC(C)=O)cc2)S(=O)(=O)c2ccc(C(C)(C)C)cc2)cc1` [YL-1-87]: at PPARα [3], the “Binding assay EC50, α” value is “nb”. Besides, the EC50 on PPARγ [4] is 410 nM. Also, at PPARδ [5], the “Binding assay EC50, δ” value is “δ nb”. The “Reporter assay (% inhibition), α” value in the data set on PPARα [6] (1 μM compound) amounted to 0%; with PPARα [6] (10 μM compound), 0%; with PPARα [6] (25 μM compound), 52%. The inhibition at 1 µM on PPARγ [7] is 19%. Besides, the inhibition at 10 µM on PPARγ [7] is 28%. Also, the inhibition at 25 µM at PPARγ [7] was found to be 79%. Moreover, the figures for the “Reporter assay (% inhibition), δ” value with PPARδ [8] (1 μM compound), in the data set on PPARδ [8] (10 μM compound) and in the data set on PPARδ [8] (25 μM compound) were “δ 18%”, 23% and 60%, respectively. The “PPAR inhibitor type (Table 1)” value with PPARα, PPARγ, PPARδ is listed as “Pan inhibitor”.

Take `CC(C)(C)c1ccc(S(=O)(=O)N(NC(=O)c2ccc(O)cc2)C(=O)c2ccc(O)cc2)cc1` [YL-1-88]: the “Binding assay EC50, α” value on PPARα [3] is “nb”. In addition, the EC50 on PPARγ [4] was 22300 nM. In addition, the “Binding assay EC50, δ” value on PPARδ [5] is on record as “δ nb”. The “Reporter assay (% inhibition), α” value with PPARα [6] (1 μM compound), with PPARα [6] (10 μM compound) and in the data set on PPARα [6] (25 μM compound) was 0% in each case. Also, the inhibition at 1 µM at PPARγ [7] came out at 0%. For the same compound, the inhibition at 10 µM on PPARγ [7] came to 0%. Further, the inhibition at 25 µM on PPARγ [7] was 10%. Besides, the “Reporter assay (% inhibition), δ” value was determined as 0% in the data set on PPARδ [8] (1 μM compound), 14% in the data set with PPARδ [8] (10 μM compound) and 40% in the data set with PPARδ [8] (25 μM compound). Also, in the data set on PPARα, PPARγ, PPARδ, the “PPAR inhibitor type (Table 1)” value is listed as “PPARδ inhibitor”.
